Measurements published in PubChem BioAssay AID602130 (Sanford-Burnham Center for Chemical Genomics, 2011).
The source made the active and inactive calls.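 Rule for the calls: active = IC50 at or below 20 µM; inactive = the rest.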

These molecules were tested against Glucose-6-phosphate 1-dehydrogenase (Homo sapiens) (UniProt P11413) (assay: blockers of human G6PD activity – biochemical, fluorescence, dose response, set 3, selectivity assay for PfG6PD antimalarial inhibitor project, SAR follow-up (AID 602130)). Conditions: human G6PD enzyme, NADPH resazurin-diaphorase fluorescence.
Sequence of Glucose-6-phosphate 1-dehydrogenase (Homo sapiens) (P11413 whole entry, looked up): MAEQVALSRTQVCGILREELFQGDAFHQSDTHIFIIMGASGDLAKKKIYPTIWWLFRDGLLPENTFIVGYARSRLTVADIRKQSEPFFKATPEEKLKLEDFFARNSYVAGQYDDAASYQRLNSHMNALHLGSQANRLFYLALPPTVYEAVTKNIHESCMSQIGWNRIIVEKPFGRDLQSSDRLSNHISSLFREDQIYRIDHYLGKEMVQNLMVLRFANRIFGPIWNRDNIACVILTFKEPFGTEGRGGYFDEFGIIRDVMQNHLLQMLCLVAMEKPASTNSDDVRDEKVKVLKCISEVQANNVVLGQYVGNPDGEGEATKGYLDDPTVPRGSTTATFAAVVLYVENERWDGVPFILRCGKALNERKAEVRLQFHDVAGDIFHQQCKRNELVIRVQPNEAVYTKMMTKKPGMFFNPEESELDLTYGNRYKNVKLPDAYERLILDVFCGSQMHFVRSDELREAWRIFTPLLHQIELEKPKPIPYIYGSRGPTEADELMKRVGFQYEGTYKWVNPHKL

IC50, inactive:
CCCN1CCCC1CNC(=O)c1ccc2c(c1)NC(=O)/C(=C/c1ccccc1F)S2 (centres undefined) > 80 µM
CCN(CC)CCNC(=O)c1ccc2c(c1)NC(=O)/C(=C/c1ccccc1F)S2 > 80 µM
CCC(C)N(CCNC(=O)c1ccc2c(c1)NC(=O)c1ccccc1S2)C1CCCCC1 (centres undefined) > 80 µM
NC1CCN(C(=O)c2ccc3c(c2)NC(=O)c2ccccc2S3)C1 (centres undefined) > 80 µM
CCN1CCCC1CNC(=O)c1ccc2c(c1)NC(=O)/C(=C/c1ccc3ccccc3c1)S2 (centres undefined) > 80 µM
O=C(NCCN1CCCCC1)c1ccc2c(c1)NC(=O)c1ccccc1S2 > 80 µM
CCN1CCC[C@@H]1CNC(=O)c1ccc2c(c1)NC(=O)/C(=C/c1ccccc1F)S2 > 80 µM
CCN1CCC[C@@H]1CNC(=O)c1ccc2c(c1)NC(=O)c1ccccc1S2 > 80 µM
CCN1CCCC1CNC(=O)c1ccc2c(c1)NC(=O)C(Cc1ccccc1F)S2 (centres undefined) > 80 µM
O=C1Nc2cc(C(=O)NCC3CCCN3)ccc2S/C1=C\c1ccccc1F (centres undefined) > 80 µM
CCN1CCC[C@H]1CNC(=O)c1ccc2c(c1)NC(=O)/C(=C/c1ccccc1F)S2 > 80 µM
NCCNC(=O)c1ccc2c(c1)NC(=O)c1ccccc1S2 > 80 µM
CCN(CC)CCCC(C)Nc1ccnc2cc(Cl)ccc12 (centres undefined) > 80 µM
CCC(C)N1CCCC1CNC(=O)c1ccc2c(c1)NC(=O)c1ccccc1S2 (centres undefined) > 80 µM
O=C(NCCNC1CCCCC1)c1ccc2c(c1)NC(=O)c1ccccc1S2 > 80 µM
CCN1CCCC1CNC(=O)c1ccc2c(c1)NC(=O)/C(=C/c1ccc(F)cc1)S2 (centres undefined) > 80 µM
CCN1CCCC1CNC(=O)c1ccc2c(c1)NC(=O)/C(=C/c1cccc(F)c1)S2 (centres undefined) > 80 µM
O=C(NCCN1CCOCC1)c1ccc2c(c1)NC(=O)c1ccccc1S2 > 80 µM
CN(C)c1ccccc1CNC(=O)c1ccc2c(c1)NC(=O)/C(=C/c1ccccc1F)S2 > 80 µM
CC(C)(C)OC(=O)N1CCCC1CNC(=O)c1ccc2c(c1)NC(=O)/C(=C/c1ccccc1F)S2 (centres undefined) > 80 µM
NC1CCN(C(=O)c2ccc3c(c2)NC(=O)/C(=C/c2ccccc2F)S3)C1 (centres undefined) > 80 µM
CCN1CCCC1CNC(=O)c1ccc2c(c1)NC(=O)/C(=C/c1c(F)cccc1F)S2 (centres undefined) > 80 µM
CCN1CCCC1CNC(=O)c1ccc2c(c1)NC(=O)/C(=C/c1cccc(F)c1F)S2 (centres undefined) > 80 µM
CCN1CCC[C@H]1CNC(=O)c1ccc2c(c1)NC(=O)c1ccccc1S2 > 80 µM
